According to ChEMBL document CHEMBL5724806, “Unraveling interindividual differences and functional consequences of gut microbial metabolism of immunosuppressants” (2024):

What was measured:
Type in all cases: ADME
[1] = The drug is tested on Bifidobacterium longum strain: DSM20088 for biotransformation under anaerobic condition. The drug concentrations were measured over 6 timepoints collected between 0 and 12 hours of incubation by liquid-chromatography-coupled mass spectrometry (LC–MS); set-up: dose 5 uM, timepoint 0, 1.5, 3, 6, 9, 12 hours; conditions: 5 µM
[2] = The drug is tested on Bacteroides caccae strain: DSM19024 for biotransformation under anaerobic condition. The drug concentrations were measured over 6 timepoints collected between 0 and 12 hours of incubation by liquid-chromatography-coupled mass spectrometry (LC–MS); set-up: dose 5 uM, timepoint 0, 1.5, 3, 6, 9, 12 hours; conditions: 5 µM
[3] = The drug is tested on Bacteroides stercoris strain: HM 1036 for biotransformation under anaerobic condition. The drug concentrations were measured over 6 timepoints collected between 0 and 12 hours of incubation by liquid-chromatography-coupled mass spectrometry (LC–MS); set-up: dose 5 uM, timepoint 0, 1.5, 3, 6, 9, 12 hours; conditions: 5 µM
[4] = The drug is tested on Bacteroides thetaiotaomicron strain: DSM2079 for biotransformation under anaerobic condition. The drug concentrations were measured over 6 timepoints collected between 0 and 12 hours of incubation by liquid-chromatography-coupled mass spectrometry (LC–MS); set-up: dose 5 uM, timepoint 0, 1.5, 3, 6, 9, 12 hours; conditions: 5 µM
[5] = The drug is tested on Parabacteroides distasonis strain: DSM20701 for biotransformation under anaerobic condition. The drug concentrations were measured over 6 timepoints collected between 0 and 12 hours of incubation by liquid-chromatography-coupled mass spectrometry (LC–MS); set-up: dose 5 uM, timepoint 0, 1.5, 3, 6, 9, 12 hours; conditions: 5 µM
[6] = The drug is tested on Blautia hansenii strain: DSM20583 for biotransformation under anaerobic condition. The drug concentrations were measured over 6 timepoints collected between 0 and 12 hours of incubation by liquid-chromatography-coupled mass spectrometry (LC–MS); set-up: dose 5 uM, timepoint 0, 1.5, 3, 6, 9, 12 hours; conditions: 5 µM
[7] = The drug is tested on Clostridium bolteae strain: DSM15670 for biotransformation under anaerobic condition. The drug concentrations were measured over 6 timepoints collected between 0 and 12 hours of incubation by liquid-chromatography-coupled mass spectrometry (LC–MS); set-up: dose 5 uM, timepoint 0, 1.5, 3, 6, 9, 12 hours; conditions: enterocloster bolteae, 5 µM
[8] = The drug is tested on Clostridium ramosum strain: DSM1402 for biotransformation under anaerobic condition. The drug concentrations were measured over 6 timepoints collected between 0 and 12 hours of incubation by liquid-chromatography-coupled mass spectrometry (LC–MS); set-up: dose 5 uM, timepoint 0, 1.5, 3, 6, 9, 12 hours; conditions: thomasclavelia ramosa, 5 µM
[9] = The drug is tested on Clostridium scindens strain: DSM5676 for biotransformation under anaerobic condition. The drug concentrations were measured over 6 timepoints collected between 0 and 12 hours of incubation by liquid-chromatography-coupled mass spectrometry (LC–MS); set-up: dose 5 uM, timepoint 0, 1.5, 3, 6, 9, 12 hours; conditions: 5 µM
[10] = The drug is tested on Dorea formicigenerans strain: DSM3992 for biotransformation under anaerobic condition. The drug concentrations were measured over 6 timepoints collected between 0 and 12 hours of incubation by liquid-chromatography-coupled mass spectrometry (LC–MS); set-up: dose 5 uM, timepoint 0, 1.5, 3, 6, 9, 12 hours; conditions: 5 µM
[11] = The drug is tested on Gemella haemolysans strain: DSM107751 for biotransformation under anaerobic condition. The drug concentrations were measured over 6 timepoints collected between 0 and 12 hours of incubation by liquid-chromatography-coupled mass spectrometry (LC–MS); set-up: dose 5 uM, timepoint 0, 1.5, 3, 6, 9, 12 hours; conditions: 5 µM
[12] = The drug is tested on Lactobacillus gasseri strain: DSM20243 for biotransformation under anaerobic condition. The drug concentrations were measured over 6 timepoints collected between 0 and 12 hours of incubation by liquid-chromatography-coupled mass spectrometry (LC–MS); set-up: dose 5 uM, timepoint 0, 1.5, 3, 6, 9, 12 hours; conditions: 5 µM
[13] = The drug is tested on Streptococcus salivarius strain: DSM20560 for biotransformation under anaerobic condition. The drug concentrations were measured over 6 timepoints collected between 0 and 12 hours of incubation by liquid-chromatography-coupled mass spectrometry (LC–MS); set-up: dose 5 uM, timepoint 0, 1.5, 3, 6, 9, 12 hours; conditions: 5 µM
[14] = The drug is tested on Escherichia coli strain: DSM27469 for biotransformation under anaerobic condition. The drug concentrations were measured over 6 timepoints collected between 0 and 12 hours of incubation by liquid-chromatography-coupled mass spectrometry (LC–MS); set-up: dose 5 uM, timepoint 0, 1.5, 3, 6, 9, 12 hours; conditions: 5 µM
[15] = The drug is tested on Actinomyces naeslundi strain: DSM43013 for biotransformation under microaerobic condition. The drug concentrations were measured over 6 timepoints collected between 0 and 12 hours of incubation by liquid-chromatography-coupled mass spectrometry (LC–MS); set-up: dose 5 uM, timepoint 0, 1.5, 3, 6, 9, 12 hours; conditions: actinomyces naeslundii, 5 µM
[16] = The drug is tested on Bifidobacterium longum strain: DSM20088 for biotransformation under microaerobic condition. The drug concentrations were measured over 6 timepoints collected between 0 and 12 hours of incubation by liquid-chromatography-coupled mass spectrometry (LC–MS); set-up: dose 5 uM, timepoint 0, 1.5, 3, 6, 9, 12 hours; conditions: 5 µM
[17] = The drug is tested on Gemella morbillorum strain: DSM20572 for biotransformation under microaerobic condition. The drug concentrations were measured over 6 timepoints collected between 0 and 12 hours of incubation by liquid-chromatography-coupled mass spectrometry (LC–MS); set-up: dose 5 uM, timepoint 0, 1.5, 3, 6, 9, 12 hours; conditions: 5 µM
[18] = The drug is tested on Lactobacillus paracasei strain: ATCC27092 for biotransformation under microaerobic condition. The drug concentrations were measured over 6 timepoints collected between 0 and 12 hours of incubation by liquid-chromatography-coupled mass spectrometry (LC–MS); set-up: dose 5 uM, timepoint 0, 1.5, 3, 6, 9, 12 hours; conditions: lacticaseibacillus paracasei, 5 µM
[19] = The drug is tested on Streptococcus anginosus strain: DSM20563 for biotransformation under microaerobic condition. The drug concentrations were measured over 6 timepoints collected between 0 and 12 hours of incubation by liquid-chromatography-coupled mass spectrometry (LC–MS); set-up: dose 5 uM, timepoint 0, 1.5, 3, 6, 9, 12 hours; conditions: 5 µM
[20] = The drug is tested on Streptococcus mitis strain: DSM12643 for biotransformation under microaerobic condition. The drug concentrations were measured over 6 timepoints collected between 0 and 12 hours of incubation by liquid-chromatography-coupled mass spectrometry (LC–MS); set-up: dose 5 uM, timepoint 0, 1.5, 3, 6, 9, 12 hours; conditions: 5 µM
[21] = The drug is tested on the gut metagenome community of A-02 with ENA study accession number: PRJEB31790 for biotransformation under anaerobic condition. The drug concentrations were measured over 7 timepoints collected between 0 and 12 hours of incubation by liquid-chromatography-coupled mass spectrometry (LC–MS); set-up: dose 5 uM, timepoint 0, 0.75, 1.5, 3, 6, 9, 12 hours; conditions: 5 µM
[22] = The drug is tested on the gut metagenome community of A-07 with ENA study accession number: PRJEB31790 for biotransformation under anaerobic condition. The drug concentrations were measured over 7 timepoints collected between 0 and 12 hours of incubation by liquid-chromatography-coupled mass spectrometry (LC–MS); set-up: dose 5 uM, timepoint 0, 0.75, 1.5, 3, 6, 9, 12 hours; conditions: 5 µM
[23] = The drug is tested on the gut metagenome community of T-05 with ENA study accession number: PRJEB31790 for biotransformation under anaerobic condition. The drug concentrations were measured over 7 timepoints collected between 0 and 12 hours of incubation by liquid-chromatography-coupled mass spectrometry (LC–MS); set-up: dose 5 uM, timepoint 0, 0.75, 1.5, 3, 6, 9, 12 hours; conditions: 5 µM
[24] = The drug is tested on the gut metagenome community of A-05 with ENA study accession number: PRJEB31790 for biotransformation under microaerobic condition. The drug concentrations were measured over 7 timepoints collected between 0 and 12 hours of incubation by liquid-chromatography-coupled mass spectrometry (LC–MS); set-up: dose 5 uM, timepoint 0, 0.75, 1.5, 3, 6, 9, 12 hours; conditions: 5 µM
[25] = The drug is tested on the gut metagenome community of P-03 with ENA study accession number: PRJEB31790 for biotransformation under microaerobic condition. The drug concentrations were measured over 7 timepoints collected between 0 and 12 hours of incubation by liquid-chromatography-coupled mass spectrometry (LC–MS); set-up: dose 5 uM, timepoint 0, 0.75, 1.5, 3, 6, 9, 12 hours; conditions: 5 µM
[26] = The drug is tested on the gut metagenome community of P-04 with ENA study accession number: PRJEB31790 for biotransformation under microaerobic condition. The drug concentrations were measured over 7 timepoints collected between 0 and 12 hours of incubation by liquid-chromatography-coupled mass spectrometry (LC–MS); set-up: dose 5 uM, timepoint 0, 0.75, 1.5, 3, 6, 9, 12 hours; conditions: 5 µM

Measured: Bacterial Biotransformation

NS(=O)(=O)c1cc(C(=O)O)c(NCc2ccco2)cc1Cl [FUROSEMIDE]
Compound NOT metabolized: all assays above

C[C@]12CCC(=O)C=C1CC[C@@H]1[C@@H]2[C@@H](O)C[C@@]2(C)[C@H]1CC[C@]2(O)C(=O)CO [HYDROCORTISONE]
Compound metabolized: [7] | [9] | [21] | [22] | [23] | [24] | [25] | [26]
Compound NOT metabolized: all other assays above

CN(Cc1cnc2nc(N)nc(N)c2n1)c1ccc(C(=O)N[C@@H](CCC(=O)O)C(=O)O)cc1 [METHOTREXATE]
Compound metabolized: [8] | [21] | [22] | [23]
Compound NOT metabolized: all other assays above
